PubChem BioAssay AID2286 (Southern Research Specialized Biocontainment Screening …, 2010)
Activity calls are given as the source filed them.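 Rule for the calls: active = minimum cell viability of 80% or lower across the dose range, counted as toxic; inactive = minimum cell viability above 80%.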

Experiments:
[1] = tested on: MAGI-CCR5 cells viability, CellTiter-Glo ATP luminescence; assay: viability loss in fusion assay cells – cell-based, MAGI and MAGI-HeLa co-culture, cytotoxicity control for HIV-1 fusion inhibitor project, dose response (AID 2286);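 note: cells exposed to compound for at least 64 h before ATP readout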;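 for minimum viability: 100% = median of DMSO vehicle wells with no ATP signal meaning 0%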;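 for viability: 100% = median of DMSO vehicle wells with no ATP signal meaning 0%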
[2] = as above; conditions: MAGI-CCR5 cells viability, CellTiter-Glo ATP luminescence; for minimum viability: measured here: MAGI minimum viability across doses
[3] = measured here: MAGI + HeLa-R5-16 co-culture viability
[4] = MAGI-HeLa co-culture viability, at 50 µM, stronger effect = lower value
[5] = at 6.25 µM, stronger effect = lower value
[6] = at 12.5 µM, stronger effect = lower value
[7] = at 0.2 µM, stronger effect = lower value
[8] = at 1.56 µM, stronger effect = lower value
[9] = at 3.13 µM, stronger effect = lower value

| Structure (SMILES) | viability [2, 4] [%] | minimum viability ([2]; at 50 µM, stronger effect = lower value) [%] | viability ([2]; at 50 µM (top of the series)) | further results |
| --- | --- | --- | --- | --- |
| COc1cc(/C=C2/SC(=S)N(Cc3ccccc3)C2=O)ccc1OCC(=O)O | 79 | 4.94 | – | CC50 [1]: 30.2 µM; CC50 [1, 3]: > 50 µM |
| O=[N+]([O-])c1cccc(S(=O)(=O)Nc2nc3ccccc3nc2Nc2cccc(S(=O)(=O)N3CCCCC3)c2)c1 | 20.4 | 19.9 | – | CC50 [1]: 7.22 µM; CC50 [1, 3]: 14.1 µM |
| Cc1cccc(C)c1-n1cccc1/C=C1\SC(=S)N(c2cccc(C(=O)O)c2)C1=O | 67.8 | 62.3 | – | CC50 [1, 3]: > 50 µM |
| CCOc1cc(/C=C2\C(=N)N3N=C(S(C)(=O)=O)SC3=NC2=O)ccc1OCCOc1cccc(OC)c1 | 47.3 | 78 | – | CC50 [1, 3]: 43.2 µM |
| O=C(N/N=C/c1cc(Cl)cc([N+](=O)[O-])c1O)NC12CC3CC(CC(C3)C1)C2 | 55.7 | 49.2 | – | CC50 [1]: 48.7 µM; CC50 [1, 3]: > 50 µM |
| COc1ccc(-c2nn(-c3ccccc3)cc2/C=C2/SC(=S)N(CCCC(=O)O)C2=O)c(C)c1 | 68.8 | 57 | – | CC50 [1, 3]: > 50 µM |
| N#C/C(=C\c1ccc(O)c([N+](=O)[O-])c1)c1nc2ccccc2s1 | 41.9 | 21.9 | – | CC50 [1]: 11.7 µM; CC50 [1, 3]: 43.8 µM |
| Brc1ccc(N/N=C(/N=Nc2nn[nH]n2)c2ccccc2)cc1 | 20.1 | 44.6 | – | CC50 [1]: 32.8 µM; CC50 [1, 3]: 23.5 µM |
| COc1cc(/C=C2\SC(=O)N(Cc3ccc(Cl)cc3)C2=O)cc([N+](=O)[O-])c1O | 72.8 | 38.6 | – | CC50 [1]: 20.8 µM; CC50 [1, 3]: > 50 µM |
| COc1ccc(C(=O)COC(=O)c2ccccc2NS(=O)(=O)c2ccc(O)c([N+](=O)[O-])c2)cc1 | 96 | 83.3 | 83.3% (inactive) | – |
| Cc1ccc(/C=C2\SC(=S)N(CCCC(=O)Nc3ccccc3C(=O)O)C2=O)cc1 | 127 | 63.9 | – | – |
| O=C(Nc1cc(C(=O)Nc2ccccc2C(=O)O)cc(C(=O)Nc2ccccc2C(=O)O)c1)c1ccccc1 | 122 | – | 113% (inactive) | minimum viability [2, 5]: 90.9% |
| O=C1NN(c2ccccc2)C(=O)/C1=C\c1cccc(OC(=O)c2cccs2)c1 | 103 | 85.1 | 85.1% (inactive) | – |
| CCOC(=O)C1=C(C)N=c2s/c(=C\c3ccc(OCC(=O)O)cc3)c(=O)n2C1c1ccc(OC(C)C)cc1 (stereo not drawn) | 105 | 65.8 | – | – |
| O=C(O)c1[nH]c2ccccc2c1C(c1cc(Cl)cc([N+](=O)[O-])c1O)c1c(C(=O)O)[nH]c2ccccc12 | 96.1 | – | 99.1% (inactive) | minimum viability [2, 6]: 93.4% |
| CS(=O)(=O)C1=NSC2=NC(=O)/C(=C\c3ccc(OC(=O)c4ccco4)c(Br)c3)C(=N)N21 | 106 | 94.8 | 94.8% (inactive) | – |
| COc1cc(/C=C2\C(=N)N3N=C(S(C)(=O)=O)SC3=NC2=O)cc(OC)c1OCCOc1ccc(C)cc1 | 111 | – | 101% (inactive) | minimum viability ([2]; at 25 µM, stronger effect = lower value): 98.3% |
| O=C(CN1C(=O)S/C(=C\C=C\c2ccccc2)C1=O)Nc1ccccc1C(=O)O | 103 | – | 90.4% (inactive) | minimum viability [2, 6]: 83.6% |
| O=c1[nH]c(=S)[nH]c2c1C(c1ccc(Br)cc1)c1c([nH]c(=S)[nH]c1=O)O2 | 116 | – | 91.7% (inactive) | minimum viability [2, 6]: 82.5% |
| Cc1cc(/C=C2/C(=N)N3C(=NC2=O)SN=C3S(C)(=O)=O)c(C)n1-c1ccccc1 | 116 | – | 104% (inactive) | minimum viability [2, 7]: 101% |
| COc1ccccc1NS(=O)(=O)c1cccc(-n2c(O)c(C=Nc3ccccc3C(=O)O)c3ccccc3c2=O)c1 | 111 | 51.4 | – | – |
| O=C(O)c1cc(-c2ccc(/C=C3\NC(=O)N(c4ccc(Cl)cc4)C3=O)o2)ccc1Cl | 95.2 | – | 102% (inactive) | minimum viability ([2]; at 0.78 µM, stronger effect = lower value): 93.3% |
| COc1ccc(-c2coc3c(C)c4oc(=O)c(CCC(=O)O)c(C)c4cc23)cc1 | 91.9 | 47.8 | – | – |
| CCOC(=O)c1sc(N2C(=O)C(O)=C(C(=O)c3ccc(C)o3)C2c2cccc([N+](=O)[O-])c2)nc1C (stereo not drawn) | 94.6 | – | – | minimum viability ([2]; at 25 µM, stronger effect = lower value): 63.8% |
| CCc1ccc(N=C2NC(=O)/C(=C/c3cc(Br)c(OCC(=O)O)c(OC)c3)S2)cc1 | 94.3 | 82.9 | 82.9% (inactive) | – |

| Structure (SMILES) | viability [2, 4] [%] | minimum viability ([2]; at 50 µM, stronger effect = lower value) [%] | viability ([2]; at 50 µM (top of the series)) | further results |
| --- | --- | --- | --- | --- |
| COc1cccc(NS(=O)(=O)c2ccc3c(c2)C2C=CCC2C(c2ccc(C(=O)O)cc2)N3)c1 (stereo not drawn) | 120 | – | 108% (inactive) | minimum viability [2, 8]: 88.6% |
| CC(c1ccccc1)N1C(=O)c2ccc(C(=O)Nc3ccc(Br)cc3C(=O)O)cc2C1=O (stereo not drawn) | 118 | – | 96.8% (inactive) | minimum viability [2, 9]: 86.6% |
| COc1ccc(OC)c(/C=C2\SC(=S)N(NS(=O)(=O)c3ccc(C)cc3)C2=O)c1 | 107 | – | 101% (inactive) | minimum viability [2, 8]: 90.5% |
| Cc1ccc2nc(N3C(=O)C(O)=C(C(=O)c4ccco4)C3c3cccc(O)c3)sc2c1 (stereo not drawn) | 105 | – | 93.2% (inactive) | minimum viability [2, 8]: 84.4% |
| COc1ccc(/C=N/NC(=O)c2[nH]c3ccc(Br)cc3c2-c2ccccc2)c(C(=O)O)c1OC | 95 | 90.4 | 90.4% (inactive) | – |
| COc1ccc(NS(=O)(=O)c2ccc3c(c2)[C@H]2C=CC[C@H]2[C@@H](c2ccc(C(=O)O)cc2)N3)cc1 | 130 | – | 99.7% (inactive) | minimum viability [2, 9]: 95.3% |
| CCOc1cc(/C=N/Nc2cccc(C(=O)O)c2)ccc1OC(=O)c1ccccc1 | 110 | – | 95.7% (inactive) | minimum viability [2, 9]: 93.3% |
| CCOc1ccc(C2C(C(=O)Nc3ccccc3)=C(C)N=c3s/c(=C/c4cccc(OCC(=O)O)c4)c(=O)n32)cc1 (stereo not drawn) | 94.8 | – | 96.2% (inactive) | minimum viability [2, 8]: 87.8% |
| O=C(O)CSCC(=O)N(Cc1ccccc1)c1nc(-c2ccccc2)c(-c2ccccc2)s1 | 121 | 89 | 89% (inactive) | – |
| N#Cc1c(-c2ccccc2)nc(SCc2cccc(Cl)c2)[nH]c1=O | 101 | – | 95.8% (inactive) | minimum viability ([2]; at 25 µM, stronger effect = lower value): 88% |
| CC1=C(C(=O)Nc2ccccc2)C(c2ccc(Cl)cc2)n2c(s/c(=C/c3cccc(OCC(=O)O)c3)c2=O)=N1 (stereo not drawn) | 127 | – | 114% (inactive) | minimum viability [2, 9]: 104% |
| O=C(NCCc1ccccc1)c1ccc2c(=O)[nH]c3c(C(=O)NCC4CCCO4)sc(=S)n3c2c1 (stereo not drawn) | 115 | 70.9 | – | – |
| COc1ccc(N2C(=O)/C(=C/c3ccco3)C(=O)NC2=S)cc1 | 86.3 | – | 100% (inactive) | minimum viability [2, 8]: 84.8% |
| O=C(O)c1cc(N2N=C(C(F)(F)F)/C(=C/C=C/c3ccco3)C2=O)ccc1Cl | 120 | – | 92.8% (inactive) | minimum viability [2, 6]: 84.9% |
| COc1ccc(C(=O)Nc2ccccc2C(=O)O)cc1NC(=O)C(c1ccccc1)c1ccccc1 | 116 | – | 99.7% (inactive) | minimum viability [2, 5]: 89.1% |
| CS(=O)(=O)C1=NSC2=NC(=O)/C(=C\c3ccc(OS(=O)(=O)c4ccccc4)cc3)C(=N)N21 | 89.2 | – | – | viability ([2]; at 25 µM (top of the series)): 83.8% (inactive); minimum viability [2, 6]: 83.1% |
| COc1cc(/C=C2\S/C(=N/S(=O)(=O)c3ccc(C)cc3)NC2=O)c([N+](=O)[O-])cc1OC | 98.5 | 98.6 | 98.6% (inactive) | – |
| O=C(O)CCCN1C(=O)/C(=C/c2ccc(-c3nc4ccccc4s3)o2)SC1=S | 99.7 | – | 92.1% (inactive) | minimum viability ([2]; at 0.1 µM, stronger effect = lower value): 87.2% |
| COc1cc(/C=C2\C(=N)N3N=C(S(C)(=O)=O)SC3=NC2=O)ccc1OC(=O)c1cccs1 | 109 | – | 96.7% (inactive) | minimum viability [2, 7]: 86.5% |
| CCOC(=O)C1=C(C)N=c2s/c(=C\c3ccc(OCC(=O)O)c(OC)c3)c(=O)n2C1c1ccc(OC)cc1 (stereo not drawn) | 107 | – | 97.1% (inactive) | minimum viability [2, 8]: 88% |
| O=C(N/N=C/c1c(O)n(C2CCCCC2)c(=S)[nH]c1=O)c1ccccc1O | 84.7 | 64.3 | – | – |
| Cc1noc(NS(=O)(=O)c2ccc(NC(=O)Nc3ccc(Cl)c(Cl)c3)cc2)c1C | 120 | – | 95.5% (inactive) | minimum viability [2, 6]: 93% |
| CCOc1cc(/C=C2\SC(=S)N(C(C(=O)O)c3ccccc3)C2=O)ccc1O (stereo not drawn) | 90.8 | – | 96.9% (inactive) | minimum viability [2, 9]: 85.8% |
| O=C(Nc1ccc(-c2nc3ccccc3[nH]2)cc1)c1ccccc1NS(=O)(=O)c1ccc(F)cc1 | 116 | 64.3 | – | – |
| O=C(COc1ccc(Cl)cc1)Nc1cc(NC(=O)COc2ccc(Cl)cc2)cc(C(=O)O)c1 | 99.5 | – | 105% (inactive) | minimum viability [2, 6]: 98.6% |
